Laboratory results: PubChem BioAssay AID1963862 (Molecular Pharmacology Branch, DTP, NCI, 2024)

System: KRAS patient-derived spheroids with HUVEC/MSC, viability
Experiment: Anticancer human tumor 941728-121-R-J1-PDC patient-derived lung adenocarcinoma cell line growth inhibition [KRAS2]
Conditions: for viability, T/C: stronger effect = lower value
Method in brief: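 KRAS-mutant tumor cells were grown as spheroids with HUVEC endothelial cells and human MSCs as stroma. Targeted agents were tested alone and with KRAS pathway inhibitors. Doses started at or near clinical Cmax, or 10 microM, descending half-log.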

[1] = curve of first compound, second compound 0.1 µM
[2] = curve of first compound, second compound 0.316 µM
[3] = curve of first compound, second compound 1 µM
[4] = curve of first compound, second compound 3.16 µM
[5] = curve of first compound, second compound 10 µM
[6] = second compound 0.1 µM, first compound 0.0316 µM
[7] = second compound 0.1 µM, first compound 0.1 µM
[8] = second compound 0.1 µM, first compound 0.316 µM
[9] = second compound 0.1 µM, first compound 1 µM
[10] = second compound 0.1 µM, first compound 3.16 µM
[11] = second compound 0.316 µM, first compound 0.0316 µM
[12] = second compound 0.316 µM, first compound 0.1 µM
[13] = second compound 0.316 µM, first compound 0.316 µM
[14] = second compound 0.316 µM, first compound 1 µM
[15] = second compound 0.316 µM, first compound 3.16 µM
[16] = second compound 1 µM, first compound 0.0316 µM
[17] = second compound 1 µM, first compound 0.1 µM
[18] = second compound 1 µM, first compound 0.316 µM
[19] = second compound 1 µM, first compound 1 µM
[20] = second compound 1 µM, first compound 3.16 µM
[21] = second compound 3.16 µM, first compound 0.0316 µM
[22] = second compound 3.16 µM, first compound 0.1 µM
[23] = second compound 3.16 µM, first compound 0.316 µM
[24] = second compound 3.16 µM, first compound 1 µM
[25] = second compound 3.16 µM, first compound 3.16 µM
[26] = second compound 10 µM, first compound 0.0316 µM
[27] = second compound 10 µM, first compound 0.1 µM
[28] = second compound 10 µM, first compound 0.316 µM
[29] = second compound 10 µM, first compound 1 µM
[30] = second compound 10 µM, first compound 3.16 µM
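Also: spheroids exposed to agents for seven days before readout.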

Compound	IC50 [1] [nM]	IC50 [2] [nM]	IC50 [3] [nM]	IC50 [4] [nM]	IC50 [5] [nM]	viability, T/C [6] [%]	viability, T/C [7] [%]	viability, T/C [8] [%]	viability, T/C [9] [%]	viability, T/C [10] [%]	viability, T/C [11] [%]	viability, T/C [12] [%]	viability, T/C [13] [%]	viability, T/C [14] [%]	viability, T/C [15] [%]	viability, T/C [16] [%]	viability, T/C [17] [%]	viability, T/C [18] [%]	viability, T/C [19] [%]	viability, T/C [20] [%]	also measured
CC1(C)CCC(CN2CCN(c3ccc(C(=O)NS(=O)(=O)c4ccc(NCC5CCOCC5)c([N+](=O)[O-])c4)c(Oc4cnc5[nH]ccc5c4)c3)CC2)=C(c2ccc(Cl)cc2)C1 + CNCc1ccccc1-c1csc(C(C)Nc2nc(C)nc3cc(OC)c(OC)cc23)c1	< 31.6	< 31.6	< 31.6	< 31.6	< 31.6	41.7	41.8	41.4	39.2	6.99	39.8	36	33.4	35.1	7.18	27	31.7	23.2	22.6	4.9	viability, T/C (second compound 0.1 µM, first compound 10 µM): 4.92%; viability, T/C (second compound 0.316 µM, first compound 10 µM): 2.59%; viability, T/C (second compound 1 µM, first compound 10 µM): 1.48%; viability, T/C [21]: 0.19%; viability, T/C [22]: 0.17%; viability, T/C [23]: 0.27%; viability, T/C [24]: 0.69%; viability, T/C [25]: 0.04%; viability, T/C (second compound 3.16 µM, first compound 10 µM): 0.12%; viability, T/C [26]: 0.11%; viability, T/C [27]: 0.11%; viability, T/C [28]: 0.09%; viability, T/C [29]: 0.33%; viability, T/C [30]: 0.1%; viability, T/C (second compound 10 µM, first compound 10 µM): 0.12%
COC(=O)c1ccc2c(C(=Nc3ccc(N(C)C(=O)CN4CCN(C)CC4)cc3)c3ccccc3)c(O)[nH]c2c1																					viability, T/C (compound 0.1 µM): 77.9% [middle of 5 runs]; viability, T/C (compound 1 µM): 68.6% [middle of 5 runs]; viability, T/C (compound 3.16 µM): 69% [middle of 5 runs]; viability, T/C (compound 10 µM): 64% [middle of 5 runs]; IC50 (curve of compound): > 10000 nM
CC(=O)OC12COC1CC(O)C1(C)C(=O)C(O)C3=C(C)C(OC(=O)C(O)C(NC(=O)OC(C)(C)C)c4ccccc4)CC(O)(C(OC(=O)c4ccccc4)C21)C3(C)C (stereo not given) + C=CC(=O)N1CCN(c2nc(=O)n(-c3c(C)ccnc3C(C)C)c3nc(-c4c(O)cccc4F)c(F)cc23)C(C)C1	< 10	< 10	< 10	< 10	< 10	17.1	19.8	18.1	21.7	20.2	17.4	17.4	20.2	20.4	18.3	19.2	16.4	19.1	20.6	20.1	viability, T/C (second compound 0.1 µM, first compound 0.01 µM): 19.7%; viability, T/C (second compound 0.316 µM, first compound 0.01 µM): 18.4%; viability, T/C (second compound 1 µM, first compound 0.01 µM): 16.6%; viability, T/C (second compound 3.16 µM, first compound 0.01 µM): 16.4%; viability, T/C [21]: 21.9%; viability, T/C [22]: 20.9%; viability, T/C [23]: 19.5%; viability, T/C [24]: 23.8%; viability, T/C [25]: 19%; viability, T/C (second compound 10 µM, first compound 0.01 µM): 25.9%; viability, T/C [26]: 24%; viability, T/C [27]: 29.5%; viability, T/C [28]: 26.2%; viability, T/C [29]: 28.8%; viability, T/C [30]: 25.5%
